For assay [1], the system named is MCF-7. As to the kind of experiment: cells. The note with it: Homo sapiens, MCF7, read-out: IC50 concentration. As to the method:
(§1) After 72 hours, the cytotoxicity of the relevant compound was determined by an MTT based assay.
(§2) Cell Lines; SKOV-3 cells were obtained from ATCC; UCI-101 and UCI-107 cell lines were obtained from Drs. P. DiSaia and A. Manetta, University of California; MCF-7 and MCF-7-Pgp were obtained from Dr. D. Piwnica-Worms, Washington University; OVCA429, OVCA433 and the taxane resistant derivatives of these cells (OVCA429T, OVCA429TxT, OVCA433T and OVCA433TxT) were obtained from Dr. B. Sikic, Stanford University. All cells were grown in DMEM with 10% FBS.
(§3) Cell Cytotoxicity Assay. The cytotoxicity of relevant compounds was determined by IC50 assay. Cells were seeded overnight into 96-well plates, and then incubated with a serial dilution of the indicated compound for 20 min, before washing twice with fresh media, and incubation at 37° C. for 72 hr in drug-free media. The IC50 values were determined as the concentration of compound required to inhibit the viability of the cell layer by 50% relative to untreated, and cell-free control wells (100 and 0% viability respectively) determined from semi-logarithmic dose response curves. […] Bioluminescence was determined using an IVIS 50 system (Caliper Life Sciences, Alameda, Calif.). Each compound and dilution was tested in triplicate per experiment, with each experiment reproduced three times.

Assay [2] deals with OVCA 429. As to the kind of experiment: cells. The following applies: Homo sapiens, OVCA429, read-out: IC50 concentration. On the procedure: as §1, §2, §3
Assay [3] concerns OVCA 433. As to the kind of experiment: cells. The following applies: Homo sapiens, OVCA433, read-out: IC50 concentration. As to the method: as §1, §2, §3
In assay [4] the test system is SKOV-3. The assay can be described thus: cells. The note with it: Homo sapiens, SK-OV-3, read-out: IC50 concentration. As to the method:
as §1, §2, §3

Assay [5] concerns UCI-101 luc. The assay can be described thus: cells. The following applies: Homo sapiens, UCI101, read-out: IC50 concentration. As to the method:
as §1, §2, §3

In assay [6] the test system is UCI-107 luc. As to the kind of experiment: cells. The note with it: Homo sapiens, read-out: IC50 concentration. As to the method: as §1, §2, §3
In assay [7] the test system is OVCA 429TxT. The assay can be described thus: cells. The note with it: Homo sapiens, read-out: IC50 concentration. As to the method: as §1
(§4) Within the panel of human cancer cells, there were three sets of related sensitive and resistant cell lines, the latter based wholly or in part on Pgp-mediated efflux. These resistant lines were either created through stable transfection of MCF-7 cells with Pgp (MCF-7-Pgp), or by selection through exposure of OVCA429 and OVCA433 cells to taxol (OVCA429T and OVCA433T)^19 or taxotere (OVCA429TxT and OVCA433TxT), creating a complex MDR phenotype including Pgp upregulation.
as §2, §3

In assay [8] the test system is OVCA 429T. As to the kind of experiment: cells. The following applies: Homo sapiens, read-out: IC50 concentration. As to the method:
as §1, §4, §2, §3

Assay [9] deals with OVCA 433TxT. As to the kind of experiment: cells. The following applies: Homo sapiens, read-out: IC50 concentration. On the procedure:
as §1, §4, §2, §3

Assay [10] deals with OVCA 433T. As to the kind of experiment: cells. The following applies: Homo sapiens, read-out: IC50 concentration. As to the method:
as §1, §4, §2, §3

Assay [11] has as its system MCF-7-pgp. The assay can be described thus: Cell cytotoxicity assay (IC50), MCF-7-pgp. The following applies: Homo sapiens, read-out: IC50 concentration. As to the method:
as §1, §4, §2, §3

Assay [12] deals with UCI-101 tumor cells expressing luciferase. As to the kind of experiment: Mouse tumor model, UCI-101 intraperitoneal xenograft. In kind it is in vivo, mice. The note with it: 10 mg/kg dose.
Description: (a) 1×10^7 UCI-101 tumor cells expressing luciferase were implanted into the peritoneal cavity of athymic nu/nu mice 7 days prior to treatment. […] For the purpose of these experiments TFA^− counteranions on both conjugates were exchanged to C. Subsequent tumor burden was followed by bioluminescence imaging (n=8/group). […] Tumor burden was followed by bioluminescence imaging. […] (n=8/group).
Mouse Tumor Models: Tumor xenografts were created by intraperitoneal injection of female athymic CD1 nu/nu or SCID mice with 1×10^7 cells. Versions of UCI-101, OVCA429 or OVCA429T cells were used expressing Firefly luciferase. […] Mice were then treated with three intraperitoneal injections (5 days apart) of 5 or 10 mg/kg taxol or equimolar dose equivalents of the taxol derivatives, or PBS as a control. For the purpose of these experiments TFA^− counteranions on both conjugates were exchanged to C. Subsequent tumor burden was followed by BLI. Once tumor burden reached 1×10^8 photons/sec/mouse the mice were euthanized.
Comparisons of survival (Kaplan-Meier) curves were made by the Wilcoxon-Rank test. Statistical significance was determined as p<0.05.

We go through one molecule from US20110160146A1, “Conjungation of Small Molecules to Octaarginine Transporters for Overcoming Multi-Drug Resistance” (National Institute of Health (NIH), priority 2008, published 2011).

On to `CC(=O)O[C@H]1C(=O)[C@@]2(C)[C@H]([C@H](OC(=O)c3ccccc3)[C@]3(O)C[C@H](OC(=O)[C@H](O)[C@@H](NC(=O)c4ccccc4)c4ccccc4)C(C)=C1C3(C)C)[C@]1(OC(C)=O)CO[C@@H]1C[C@@H]2O` [compound 1, Taxol, reference compound], for which the IC50 in [1] was found to be 0.171 µM; in assay [2], 0.147 µM; in assay [3], 0.294 µM; in assay [4], 0.029 µM; in assay [5] it was 0.246 µM; in [6], 0.32 µM. The IC50 in assay [7] was 2.52 µM; in [8], 15.8 µM; in [9], 12.4 µM; in assay [10] it was 6.18 µM; in assay [11], 0.867 µM. In assay [12], this molecule had a complete responses of 12.5%.
